Test results published in patent US20120270807A1, “MACROCYCLIC INHIBITORS OF SERINE PROTEASE ENZYMES” (priority 2009, published 2012).

These compounds were tested against human matriptase (Homo sapiens, UniProt Q9Y5Y6) (assay: Assay for inhibition of matriptase (fluorogenic substrate Boc-Gln-Ala-Arg-AMC)). Settings: residual matriptase activity in presence of test compound; hydrolysis of Boc-Gln-Ala-Arg-AMC; 10 μM for initial screening per method.
Type: biochemical
Source text: The following describes an assay for matriptase as a representative serine protease and is based upon reported methods. (Désilets, A.; Longpré, J.-M.; Beaulieu, M.-E.; Leduc, R. FEBS Lett. 2006, 580, 2227-2232.) Similar assays are applicable and available for other serine proteases.
Enzyme activities were monitored by measuring the release of fluorescence from AMC-coupled peptides (excitation, 360 nm; emission, 441 nm) in a FLX-800 TBE microplate reader (Bio-Tek Instruments, Winooski, Vt., USA). The purified human matriptase was active site titrated with the burst titrant 4-methylumbelliferyl-p-guanidino benzoate (MUGB). Enzymatic assays with matriptase were performed in Tris-HCl 100 mM containing 500 µg/mL BSA at pH 9. Human soluble furin was expressed, purified, titrated and assayed as described in the literature (Denault, J. B.; Lazure, C.; Day, R; Leduc, R. Protein Expr. Purif. 2000, 19, 113-124.) The purified HAT protein was active-site titrated with MUGB. Assays with HAT were performed in 50 mM Tris-HCl at pH 8.6.
Enzymes were diluted to concentrations ranging from 4 to 12.5 nM for furin, from 2 to 7 nM for matriptase and 20 pM for HAT and incubated with either 10 μM (for initial screening) […] or appropriate dilutions (for kinetic analysis), for example 0, 500, 1000, 2000 nM or 0, 250, 500, 1000, 2500, 5000 nM, of the test compound for 15 min at RT. Residual enzyme activity was measured by following the hydrolysis of a fluorogenic substrate (4 μM Boc-Arg-Val-Arg-Arg-AMC for furin, Boc-Gln-Ala-Arg-AMC for matriptase and 4 μM Boc-Val-Pro-Arg-AMC for HAT) (Bachem Bioscience, King of Prussia, Pa., USA). Saturation curves were performed in the presence of increasing concentrations of test compounds. Data from three independent experiments or more were typically averaged and residual velocities were plotted as a function of test compound concentration. Data were fitted by non-linear regression analysis to Equation (1) (Bieth, J. G. Methods Enzymol. 1995, 248, 59-84.) using the Enzfitter software (Biosoft, Ferguson, Mo., USA).
vi/v0=1−{([E]0+[I]0+Ki(app))−(([E]0+[I]0+Ki(app))^2−4[E]0[I]0)^1/2}/2[E]0 Equation (1): […]
where v0 and vi are the steady-state rates of substrate hydrolysis in the absence and presence of inhibitor, respectively, [E]0, the initial concentration of enzyme, [I]0, the initial concentration of inhibitor and Ki(app) the substrate-dependent equilibrium dissociation constant. The substrate-independent constant Ki was calculated using Equation (2) (Bieth, J. G. Methods Enzymol. 1995, 248, 59-84.),
Ki=Ki(app)(1+[S]0/Km) Equation (2): […]
The table presents results for matriptase inhibition for representative compounds of the invention.
Ki's can be calculated from the velocity using nonlinear regression analysis. The model used is a competitive enzyme inhibition equation where KmObs=Km*(1+[I]/Ki) and Y=Vmax*X/(KmObs+X). X is the substrate concentration. Y the velocity.

Sequence of human matriptase (Q9Y5Y6 615-855 limits assumed, other chains not shown): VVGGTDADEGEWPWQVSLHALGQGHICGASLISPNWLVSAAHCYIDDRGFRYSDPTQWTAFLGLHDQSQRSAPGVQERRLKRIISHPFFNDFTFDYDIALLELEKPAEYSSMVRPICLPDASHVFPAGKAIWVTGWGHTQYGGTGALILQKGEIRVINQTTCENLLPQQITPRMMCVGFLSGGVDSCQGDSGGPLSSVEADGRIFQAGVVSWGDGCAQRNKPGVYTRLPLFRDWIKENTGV

Row | Structure (SMILES) | Velocity (FU/min)
1 | C[C@@H]1C(=O)N[C@H](Cc2ccncc2)C(=O)NCCCc2ccc(F)cc2OCCN[C@@H](C2CC2)C(=O)N1C [Compound 495] | 2700
2 | C[C@@H]1NCCOc2cc(F)ccc2CCCNC(=O)[C@@H](Cc2ccc(C(=N)N)cc2)NC(=O)[C@@H](C)N(C)C1=O [Compound 467] | 2300
3 | C[C@@H]1C(=O)N[C@H](Cc2ccc(C(=N)N)cc2)C(=O)NC/C=C/c2cccc(c2)OCCN[C@@H](C2CC2)C(=O)N1C [Compound 482] | 2500
4 | C[C@@H]1C(=O)N[C@H](Cc2c[nH]cn2)C(=O)NCCCc2ccc(F)cc2OCCN[C@@H](C2CC2)C(=O)N1C [Compound 493] | 2700
5 | C[C@@H]1C(=O)N[C@H](Cc2cscn2)C(=O)NCCCc2ccc(F)cc2OCCN[C@@H](C2CC2)C(=O)N1C [Compound 496] | 2700
6 | C[C@@H]1CN[C@@H](C2CC2)C(=O)N(C)[C@H](C)C(=O)N[C@H](Cc2ccc(C(=N)N)cc2)C(=O)NCCCc2ccccc2O1 [Compound 459] | 140
7 | C[C@@H]1CN[C@@H](C2CC2)C(=O)N(C)[C@H](C)C(=O)N[C@H](Cc2ccc(C(N)=O)cc2)C(=O)NCCCc2ccccc2O1 [Compound 498] | 580
8 | C[C@@H]1C(=O)N[C@H](CCCN)C(=O)NCCCc2ccc(F)cc2OCCN[C@@H](C2CC2)C(=O)N1C [Compound 487] | 2500
